What all share (format): cell-based
In test [1] the test system is Staphylococcus aureus (SA-1199B, NorA). Briefly: Other MIC determination, microdilution method (CLSI M07-A9) with modifications. To be noted: 18 h. On the procedure:
(§1) The microdilution method recommended by the Clinical and Laboratory Standard Institute [M07-A9, Vol.32, N°2] was used with the following modifications.
(§2) Bacterial inocula were prepared in Mueller Hinton broth (MH2, BioMérieux, Marcy L'Etoile, France). They were dispensed in 96 well microtiter plates (10^6 CFU/ml of final inoculum, 192 µL per well).
(§3) To avoid cross-contaminations in microtiter plates, one row was left blank between each strain tested. Microplates were incubated for 18h at 37 °C in ambient air. Then MICs were read visually and, in case of visual reading difficulties, confirmed using a spectrophotometer at a wavelength of 630 nm (BioTek® EL808 Absorbance Microplate Reader). MICs corresponded to the minimum pyrrolic compound concentrations that allowed complete visual growth inhibition of bacteria. Drug-free cultures served as growth controls.
(§4) We used four Staphylococcus aureus strains. Two reference strains were provided by the French reference center for Staphylococcus spp. (Lyon, France), including one methicillin-susceptible (MSSA 476) and one methicillin-resistant (MRSA 252) S. aureus strains. The two remaining S. aureus strains were purchased from the CRBIP (Centre de Ressources Biologiques de l'Institut Pasteur): a vancomycin-intermediate strain (ATCC 106414) and a S. aureus strain (SA-1199B) resistant to fluoroquinolones due to overexpression of the NorA multidrug efflux pump. Coagulase-negative Staphylococcus strains included three reference strains purchased from CRBIP: a methicillin-susceptible S. epidermidis strain (ATCC 12228), a methicillin-resistant S. epidermidis strain (ATCC 49461), and a methicillin-susceptible S. sciuri strain (ATCC 29061). We also used 37 clinical strains belonging to the following coagulase-negative Staphylococcus species: S. arlettae (two strains), S. capitis (nine strains), S. epidermidis (one strain), S. haemolyticus (six strains), S. hominis (eight strains), S. lugdunensis (one strain), S. massiliensis (one strain), S. pettenkoferi (two strains), S. saprophyticus (two strains), S. simulans (one strain), and S. warneri (four strains) . Identification of the clinical strains was first obtained using VITEK® 2 System (Biomérieux) and confirmed by amplification and sequencing of the tuf gene (Reference: Bergeron, M., O. Dauwalder, M. Gouy, A.-M. Freydiere, M. Bes, H. Meugnier, Y. Benito, J. Etienne, G. Lina, F. Vandenesch, and S. Boisset. Species identification of staphylococci by amplification and sequencing of the tuf gene compared to the gap gene and by matrix-assisted laser desorption ionization time-of-flight mass spectrometry, Eur. J. Clin. Microbial. Infect. Dis. 2011, 30, 343-354).
The activity of pyrrolic compounds 3c, 3e-3j and 3n was first tested against 12 Staphylococcus sp. strains, including 7 reference strains and five clinical strains. The MICs of these compounds against Staphylococcus aureus ATCC 106414 (VISA) and Staphylococcus epidermidis ATCC 12228 are in accordance with those described in Tables I and II.
(In general: Broth dilution looks for growth in wells or tubes with falling amounts of substance.)

Test [2] has as its system Staphylococcus warneri (CHUG-Swar4). The test is described as above. To be noted: clinical strain. On the procedure: as §1, §2, §3, §4
(§5) The activity of the pyrrolic compounds 3c and 3i was further tested against 32 clinical strains belonging to 11 coagulase-negative Staphylococcus species.

In test [3] the test system is Staphylococcus capitis (CHUG-Scapi6). The description is as above. To be noted: clinical strain. On the procedure: as §1, §2, §3, §4, §5
Test [4] deals with Staphylococcus hominis (CHUG-Shom4). The description is as above. To be noted: clinical strain. The procedure:
as §1, §2, §3, §4, §5

The test system of test [5] is Staphylococcus pettenkoferi (CHUG-Spet2). The test is described as above. To be noted: clinical strain. The procedure:
as §1, §2, §3, §4, §5

In test [6] the test system is Staphylococcus haemolyticus (CHUG-Shae6). The test is described as above. On the procedure:
as §1, §2, §3, §4, §5

Test [7] deals with Staphylococcus capitis (CHUG-Scapi2). The test is described as above. As to conditions: clinical strain. The procedure: as §1, §2, §3, §4, §5
In test [8] the test system is Staphylococcus arlettae (CHUG-Sarl2, meti-R). The test is described as above. The procedure: as §1, §2, §3, §4, §5
Test [9] concerns Staphylococcus haemolyticus (CHUG-Shae7). Described as above. The procedure:
as §1, §2, §3, §4, §5

Test [10] relates to Staphylococcus hominis (CHUG-Shom8). The test is described as above. As to conditions: clinical strain. The procedure: as §1, §2, §3, §4, §5
The test system of test [11] is Staphylococcus epidermidis CIP 103627. As to the kind of experiment: MIC determination, microdilution method (CLSI M07-A8). As to conditions: CIP103627, 5 x 10^5 CFU/mL, 18 hours incubation. An outline of the steps:
(§6)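 MIC = lowest concentration with no visible growth after 18 h at 37°C. Mueller Hinton broth (+10% sheep blood and 5% CO2 for H. influenzae), 5 x 10^5 CFU/mL, twofold series 0.25-64 mg/L, CLSI M07-A8 microdilution.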

Test [12] deals with Staphylococcus aureus CIP 103428. The description is as above. As to conditions: CIP103428, 5 x 10^5 CFU/mL, 18 hours incubation. An outline of the steps:
as §6

In test [13] the test system is Staphylococcus aureus ATCC 9144. The test is described as above. As to conditions: ATCC9144, 5 x 10^5 CFU/mL, 18 hours incubation. The method, boiled down: as §6
Test [14] has as its system Staphylococcus aureus ATCC 106414 (VISA). The description is as above. As to conditions: 5 x 10^5 CFU/mL, 18 hours incubation. The method, boiled down:
as §6

Test [15] has as its system Staphylococcus aureus CIP 65.6. The test is described as above. As to conditions: CIP65, 5 x 10^5 CFU/mL, 18 hours incubation. An outline of the steps: as §6
Test [16] relates to Staphylococcus aureus ATCC 33592 (MRSA). The description is as above. To be noted: 5 x 10^5 CFU/mL, 18 hours incubation. An outline of the steps: as §6
Test [17] concerns Staphylococcus aureus ATCC 6538. The test is described as above. To be noted: ATCC6538, 5 x 10^5 CFU/mL, 18 hours incubation. The method, boiled down:
as §6

Test [18] has as its system Staphylococcus aureus CIP 65.25 (MRSA). The test is described as above. To be noted: 5 x 10^5 CFU/mL, 18 hours incubation. An outline of the steps:
as §6

Test [19] relates to Staphylococcus epidermidis CIP 81.55. The description is as above. To be noted: CIP81, 5 x 10^5 CFU/mL, 18 hours incubation. An outline of the steps: as §6

Values after ≈ are worked out from the molar mass of the structure shown.

The MIC is the smallest concentration in the dilution series that meets the test's criterion for growth inhibition. Higher therefore signals weaker potency. On to `CC(=O)c1c(C)[nH]c(C(c2[nH]c(C)c(C(C)=O)c2C)c2csc3ccccc23)c1C` [3i], for which the minimum inhibitory concentration (MIC) is 1 µg/mL (≈ 2.39 µM) in [1]; 4 µg/mL (≈ 9.56 µM) in [2]; 1 µg/mL (≈ 2.39 µM) in [3]; 16 µg/mL (≈ 38.2 µM) in test [4]; more than 16 µg/mL in test [5]; 4 µg/mL (≈ 9.56 µM) in [6]. In addition, the MIC in [7] was 2 µg/mL (≈ 4.78 µM); in [8], 16 µg/mL (≈ 38.2 µM); in [9] it was 4 µg/mL (≈ 9.56 µM); in test [10], more than 32 µg/mL; in test [11], more than 128 µg/mL; in [12], 0.5 µg/mL (≈ 1.19 µM). The MIC turned out to be 1 µg/mL (≈ 2.39 µM) in test [13]; 0.5 µg/mL (≈ 1.19 µM) in test [14]; 0.5 µg/mL (≈ 1.19 µM) in [15]; 0.5 µg/mL (≈ 1.19 µM) in [16]; 0.5 µg/mL (≈ 1.19 µM) in test [17]; 1 µg/mL (≈ 2.39 µM) in test [18]. This compound also had a minimum inhibitory concentration (MIC) in test [19] of more than 128 µg/mL.
Consider `CC(=O)c1c(C)[nH]c(C(c2[nH]c(C)c(C(C)=O)c2C)c2cccc3ccccc23)c1C` [3h], for which the MIC in test [1] was 2 µg/mL (≈ 4.85 µM); in [11], more than 128 µg/mL; in [12], 1 µg/mL (≈ 2.42 µM); in test [13], 8 µg/mL (≈ 19.4 µM); in test [14] it was 1 µg/mL (≈ 2.42 µM); in [15], 1 µg/mL (≈ 2.42 µM). Also, the MIC was 1 µg/mL (≈ 2.42 µM) in test [16], 1 µg/mL (≈ 2.42 µM) in [17], 1 µg/mL (≈ 2.42 µM) in test [18] and more than 128 µg/mL in [19].
In the case of `CC(=O)c1c(C)[nH]c(C(c2ccc(F)cc2)c2[nH]c(C)c(C(C)=O)c2C)c1C` [3g], the lowest concentration to inhibit growth in test [1] (MIC) was 8 µg/mL (≈ 21 µM).
On the same count and under the same terms, to `COC(=O)c1cccc(C(c2[nH]c(C)c(C(C)=O)c2C)c2[nH]c(C)c(C(C)=O)c2C)c1` [3j, Methyl-3-[bis(4-acetyl-3,5-dimethyl-1H-pyrrol-2-yl)methyl]benzoate] belongs 8 µg/mL (≈ 19 µM).
With `CC(=O)c1c(C)[nH]c(C(c2cc3ccccc3o2)c2[nH]c(C)c(C(C)=O)c2C)c1C` [3e], the MIC is more than 128 µg/mL in test [11]; 4 µg/mL (≈ 9.94 µM) in test [12]; 4 µg/mL (≈ 9.94 µM) in test [13]; 4 µg/mL (≈ 9.94 µM) in test [14]; 4 µg/mL (≈ 9.94 µM) in test [15]; 4 µg/mL (≈ 9.94 µM) in test [16]. The values for the MIC in test [17], in [18] and in test [19] were 4 µg/mL (≈ 9.94 µM), 2 µg/mL (≈ 4.97 µM) and more than 128 µg/mL, respectively.
Take `CC(=O)c1c(C)[nH]c(C(c2cc3ccccc3s2)c2[nH]c(C)c(C(C)=O)c2C)c1C` [3f]: the minimum inhibitory concentration (MIC) is 2 µg/mL (≈ 4.78 µM) in test [1]; more than 128 µg/mL in [11]; 2 µg/mL (≈ 4.78 µM) in test [12]; 2 µg/mL (≈ 4.78 µM) in test [13]; 2 µg/mL (≈ 4.78 µM) in test [14]; 2 µg/mL (≈ 4.78 µM) in [15]. For the same compound, the MIC in [16] is 8 µg/mL (≈ 19.1 µM); in [17], 2 µg/mL (≈ 4.78 µM); in test [18], 2 µg/mL (≈ 4.78 µM); in test [19], more than 128 µg/mL.
On to `CC(=O)c1c(C)[nH]c(C(c2ccc(Cl)cc2)c2[nH]c(C)c(C(C)=O)c2C)c1C` [3c], for which the MIC in test [2] is 16 µg/mL (≈ 40.3 µM); in test [3], 8 µg/mL (≈ 20.2 µM); in test [4], more than 32 µg/mL; in test [5], more than 32 µg/mL; in [6] it was 16 µg/mL (≈ 40.3 µM); in [7], 16 µg/mL (≈ 40.3 µM). Besides, the MIC was more than 32 µg/mL in [8]; 16 µg/mL (≈ 40.3 µM) in [9]; more than 32 µg/mL in test [10]; more than 128 µg/mL in test [11]; 8 µg/mL (≈ 20.2 µM) in test [12]; 4 µg/mL (≈ 10.1 µM) in test [13]. For the same compound, the MIC was 2 µg/mL (≈ 5.04 µM) in [14]; 4 µg/mL (≈ 10.1 µM) in [15]; 4 µg/mL (≈ 10.1 µM) in test [16]; 2 µg/mL (≈ 5.04 µM) in [17]; 2 µg/mL (≈ 5.04 µM) in test [18]; more than 128 µg/mL in [19].
